According to patent US20230270714A1, “SALVINORIN COMPOSITIONS” (priority 2021, published 2023):
Values after ≈ are worked out from the molar mass of the structure shown. Values joined by “and” are separate entries in the source; they are usually repeats but may differ in a detail not shown here. Equal entries are not always repeated.

Legend:
[1] = Pharmacokinetics of subcutaneous Salvinorin A in rats, Day 1 and Day 8 (in 1-methyl-2-pyrrolidine, polyethylene glycol 400 1:9 v/v); type: in vivo, Sprague-Dawley rats; settings: for time to peak plasma concentration (Tmax): summary of two separate studies
Description: In another experiment Salvinorin A was formulated at three different dose concentrations (1 mg/mL, 5 mg/mL, and 10 mg/mL Salvinorin A in 1-methyl-2-pyrrolidine, polyethylene glycol 400 at a 1:9 v/v ratio) and administered via injection (subcutaneous) to three groups of Sprague-Dawley rats (each group including female and male rats). The formulation containing 10 mg/mL Salvinorin A was administered as two injections at separate dosage sites (total dose of 100 mg/kg). The same groups of rats were administered a second dose of the injectable composition 7 days after the first dosing.

[2] = Solubility of Salvinorin A in solubilizer oils (HPLC)
[3] = administered orally, even at higher doses; cited from earlier work
[4] = Salvinorin A solubility in polar aprotic solvents; type: physicochemical
Description: In Table 9 below the solubility of Salvinorin A in polar aprotic solvents was evaluated by increasing the amount of Salvinorin A in the candidate solvents.

[5] = Solubilization of Salvinorin A mixed with solubilizers in water (supersaturated mixtures, HPLC)
[6] = Solubility of Salvinorin A API and Salvinorin A loaded buccal films in 10 mM PBS pH 7; type: physicochemical
Description: After 3 hours samples were filtered through 0.45/0.22 micron filter and tested for content by HPLC analysis.

[7] = Pharmacokinetics of subcutaneous Salvinorin A in rats, first experiment (in 1-methyl-2-pyrrolidine, polyethylene glycol 400 1:9 v/v); type: in vivo, male Sprague-Dawley rats
Description: A series of experiments were conducted in order to evaluate the pharmacokinetics of injectable Salvinorin A compositions in rats. In the first experiment Salvinorin A was formulated at two different dose concentrations (5 mg/mL and 20 mg/mL Salvinorin A in 1-methyl-2-pyrrolidine, polyethylene glycol 400 at a 1:9 v/v ratio) and administered via injection (subcutaneous) to two groups of male Sprague-Dawley rats.

[8] = Day 1, Group 10, 5 mg/kg subcutaneous, Mean of M and F
[9] = Day 1, Group 10, 5 mg/kg subcutaneous, Sex F
[10] = Day 1, Group 10, 5 mg/kg subcutaneous, Sex M
[11] = Day 1, Group 11, 25 mg/kg subcutaneous, Mean of M and F
[12] = Day 1, Group 11, 25 mg/kg subcutaneous, Sex F
[13] = Day 1, Group 11, 25 mg/kg subcutaneous, Sex M
[14] = Day 1, Group 12, 100 mg/kg subcutaneous (two injections), Mean of M and F
[15] = Day 1, Group 12, 100 mg/kg subcutaneous (two injections), Sex F
[16] = Day 1, Group 12, 100 mg/kg subcutaneous (two injections), Sex M
[17] = Day 8 (second dose), Group 10, 5 mg/kg subcutaneous, Mean of M and F
[18] = Day 8 (second dose), Group 10, 5 mg/kg subcutaneous, Sex F
[19] = Day 8 (second dose), Group 10, 5 mg/kg subcutaneous, Sex M
[20] = Day 8 (second dose), Group 11, 25 mg/kg subcutaneous, Mean of M and F
[21] = Day 8 (second dose), Group 11, 25 mg/kg subcutaneous, Sex F
[22] = Day 8 (second dose), Group 11, 25 mg/kg subcutaneous, Sex M
[23] = Day 8 (second dose), Group 12, 100 mg/kg subcutaneous (two injections), Mean of M and F
[24] = Day 8 (second dose), Group 12, 100 mg/kg subcutaneous (two injections), Sex F
[25] = Day 8 (second dose), Group 12, 100 mg/kg subcutaneous (two injections), Sex M
[26] = Group 1, 25 mg/kg subcutaneous, Mean
[27] = Group 1, 25 mg/kg subcutaneous, individual rats 0, 1, 2, 25 mg/kg
[28] = Group 2, 100 mg/kg subcutaneous, Mean
[29] = Group 2, 100 mg/kg subcutaneous, individual rats 3, 4, 5, 100 mg/kg

Compound: COC(=O)[C@@H]1C[C@H](OC(C)=O)C(=O)[C@H]2[C@@]1(C)CC[C@H]1C(=O)O[C@H](c3ccoc3)C[C@]21C [Salvinorin A]
- AUClast [1, 8]: 191 ng·h/mL
- Cmax [1, 8]: 67.1 ng/mL
- Tmax [1, 8]: 180 min
- AUClast [1, 9]: 233 ng·h/mL
- Cmax [1, 9]: 75.8 ng/mL
- Tlast [1, 9]: 4 h
- Tmax [1, 9]: 240 min
- AUClast [1, 10]: 148 ng·h/mL
- Cmax [1, 10]: 58.4 ng/mL
- Tlast [1, 10]: 4 h
- Tmax [1, 10]: 120 min
- AUClast [1, 11]: 375 ng·h/mL
- Cmax [1, 11]: 192 ng/mL
- Tmax [1, 11]: 45 min
- AUClast [1, 12]: 389 ng·h/mL
- Cmax [1, 12]: 250 ng/mL
- Tlast [1, 12]: 4 h
- Tmax [1, 12]: 30 min
- AUClast [1, 13]: 361 ng·h/mL
- Cmax [1, 13]: 135 ng/mL
- Tlast [1, 13]: 4 h
- Tmax [1, 13]: 60 min
- AUC0-00 [1, 14]: 1580 ng·h/mL
- AUClast [1, 14]: 1540 ng·h/mL
- Cmax [1, 14]: 370 ng/mL
- Tmax [1, 14]: 4.5 min
- T½ [1, 14]: 4.79 h
- AUC0-00 [1, 15]: 1920 ng·h/mL
- AUClast [1, 15]: 1870 ng·h/mL
- Cmax [1, 15]: 419 ng/mL
- Tlast [1, 15]: 24 h
- Tmax [1, 15]: 60 min
- T½ [1, 15]: 4.80 h
- AUC0-00 [1, 16]: 1240 ng·h/mL
- AUClast [1, 16]: 1210 ng·h/mL
- Cmax [1, 16]: 321 ng/mL
- Tlast [1, 16]: 24 h
- Tmax [1, 16]: 30 min
- T½ [1, 16]: 4.78 h
- AUClast [1, 17]: 200 ng·h/mL
- Cmax [1, 17]: 74.5 ng/mL
- Tmax [1, 17]: 120 min
- AUClast [1, 18]: 211 ng·h/mL
- Cmax [1, 18]: 78.3 ng/mL
- Tlast [1, 18]: 4 h
- Tmax [1, 18]: 120 min
- AUClast [1, 19]: 188 ng·h/mL
- Cmax [1, 19]: 70.6 ng/mL
- Tlast [1, 19]: 4 h
- Tmax [1, 19]: 120 min
- (h) [1, 20]: 4.54 h
- AUC0-00 [1, 20]: 735 ng·h/mL
- AUClast [1, 20]: 723 ng·h/mL
- Cmax [1, 20]: 174 ng/mL
- Tmax [1, 20]: 45 min
- (h) [1, 21]: 4.16 h
- AUC0-00 [1, 21]: 958 ng·h/mL
- AUClast [1, 21]: 946 ng·h/mL
- Cmax [1, 21]: 162 ng/mL
- Tlast [1, 21]: 24 h
- Tmax [1, 21]: 30 min
- (h) [1, 22]: 4.92 h
- AUC0-00 [1, 22]: 512 ng·h/mL
- AUClast [1, 22]: 500 ng·h/mL
- Cmax [1, 22]: 185 ng/mL
- Tlast [1, 22]: 24 h
- Tmax [1, 22]: 60 min
- (h) [1, 23]: 5.00 h
- AUC0-00 [1, 23]: 1420 ng·h/mL
- AUClast [1, 23]: 1380 ng·h/mL
- Cmax [1, 23]: 341 ng/mL
- Tmax [1, 23]: 3 min
- (h) [1, 24]: 4.80 h
- AUC0-00 [1, 24]: 1520 ng·h/mL
- AUClast [1, 24]: 1470 ng·h/mL
- Cmax [1, 24]: 315 ng/mL
- Tlast [1, 24]: 24 h
- Tmax [1, 24]: 30 min
- (h) [1, 25]: 5.20 h
- AUC0-00 [1, 25]: 1320 ng·h/mL
- AUClast [1, 25]: 1280 ng·h/mL
- Cmax [1, 25]: 368 ng/mL
- Tlast [1, 25]: 24 h
- Tmax [1, 25]: 30 min
- time to peak plasma concentration (Tmax) ([1]; subcutaneous dosing in the rat at 5 mg/kg): 2 to 4 h
- time to peak plasma concentration (Tmax) ([1]; subcutaneous dosing in the rat at 25 and 100 mg/kg): 0.5 h
- Solubility (mg/ml) HPLC ([2]; Eucaliptol 5 g, Salvinorin A 12.00 mg): 0.108 mg/mL (≈ 250 µM)
- Solubility (mg/ml) HPLC ([2]; L Menthone 5 g, Salvinorin A 10.00 mg): 0.101 mg/mL (≈ 234 µM)
- Solubility (mg/ml) HPLC ([2]; Oleyl Alcohol 5 g, Salvinorin A 11.00 mg): 0.065 mg/mL (≈ 150 µM)
- Solubility (mg/ml) HPLC ([2]; Peppermint oil 5 g, Salvinorin A 9.90 mg): 0.384 mg/mL (≈ 888 µM)
- Solubility (mg/ml) HPLC ([2]; S Limonene 5 g, Salvinorin A 10.00 mg): 0.052 mg/mL (≈ 120 µM)
- Solubility (mg/ml) HPLC ([2]; Soybean oil 5 g, Salvinorin A 11.00 mg): 0.032 mg/mL (≈ 74 µM)
- psychoactive effects [3]: fails to exhibit any psychoactive effects
- Solubility (Y= soluble, N= not soluble completely) ([4]; DMA, 100 mg/ml): Y (Y= soluble)
- Solubility (Y= soluble, N= not soluble completely) ([4]; DMA, 200 mg/ml): N (N= not soluble completely)
- Solubility (Y= soluble, N= not soluble completely) ([4]; DMSO, 100 mg/ml): Y (Y= soluble)
- Solubility (Y= soluble, N= not soluble completely) ([4]; DMSO, 200 mg/ml): N (N= not soluble completely)
- Solubility (Y= soluble, N= not soluble completely) ([4]; NMP, 20 mg/ml): Y (Y= soluble)
- Solubility (Y= soluble, N= not soluble completely) ([4]; NMP, 100 mg/ml): Y (Y= soluble)
- Solubility (Y= soluble, N= not soluble completely) ([4]; NMP, 200 mg/ml): Y (Y= soluble)
- Solubility (mg/ml) HPLC ([5]; Benzalkonium chloride (BKC) 50 mg, Salvinorin A 21 mg, water 10 ml): 0.008 mg/mL (≈ 18.5 µM)
- Solubility (mg/ml) HPLC ([5]; Poloxamer 407 (Lutrol micro 127 MP) 150 mg, Salvinorin A 21 mg, water 10 ml): 0.008 mg/mL (≈ 18.5 µM)
- Solubility (mg/ml) HPLC ([5]; SPAN 60 103.00 mg, Salvinorin A 12.00 mg, water 5 ml): 0.013 mg/mL (≈ 30.1 µM)
- Solubility (mg/ml) HPLC ([5]; Sodium Deoxycholate 100 mg, Salvinorin A 22 mg, water 10 ml): 0.078 mg/mL (≈ 180 µM)
- Solubility (mg/ml) HPLC ([5]; Sodium dodecyl sulfate (SDS; SLS) 50 mg, Salvinorin A 21 mg, water 10 ml): 0.013 mg/mL (≈ 30.1 µM)
- Solubility (mg/ml) HPLC ([5]; TPGS (soluble vitamin E) 100 mg, Salvinorin A 23 mg, water 10 ml): 0.011 mg/mL (≈ 25.4 µM)
- Solubility ([6]; 4 mg equivalent of API powder or film in 10 mL 10 mM PBS, pH 7, 3 hours, filtered, HPLC): 1.8 µg/mL
- Solubility (in words) ([6]; 10 mM PBS, pH 7.0): very low solubility
- AUC0-00 [7, 26]: 457.0 ng·h/mL
- AUClast [7, 26]: 427.3 ng·h/mL
- Cmax [7, 26]: 215.3 ng/mL
- Tmax [7, 26]: 30 min
- T½ [7, 26]: 1.5 h
- Tmax ([7]; Group 1, 25 mg/kg subcutaneous, individual rats 0, 1, 2): 30 min
- AUC0-00 [7, 27]: 389 ng·h/mL and 422 ng·h/mL and 560 ng·h/mL
- AUClast [7, 27]: 362 ng·h/mL and 405 ng·h/mL and 515 ng·h/mL
- Cmax [7, 27]: 209 ng/mL and 213 ng/mL and 224 ng/mL
- T½ [7, 27]: 1.00 h and 1.58 h and 1.96 h
- AUC0-00 [7, 28]: 419.3 ng·h/mL
- AUClast [7, 28]: 395.0 ng·h/mL
- Cmax [7, 28]: 183.3 ng/mL
- Tmax [7, 28]: 42 min
- T½ [7, 28]: 1.5 h
- AUC0-00 [7, 29]: 365 ng·h/mL and 498 ng·h/mL and 395 ng·h/mL
- AUClast [7, 29]: 348 ng·h/mL and 461 ng·h/mL and 376 ng·h/mL
- Cmax [7, 29]: 187 ng/mL and 208 ng/mL and 155 ng/mL
- Tmax [7, 29]: 60 min and 30 min
- T½ [7, 29]: 0.87 h and 1.91 h and 1.73 h
